# Reference: patent publication US20260286356A1, “NUCLEIC ACID VACCINE FOR ACTIVATING NKG2C+ NATURAL KILLER CELLS” (priority 2023, published 2026)
# Experiments:
# [1] = biological target: HLA-E (Homo sapiens, UniProt P13747); assay: HLA-E surface stabilization assay with RMA-S/HLA-E cells; assay type: cell-based; conditions: RMA-S/HLA-E cells incubated with 30 μM peptide, anti-HLA-E antibody
# Method: Assessment of peptide-HLA-E binding via HLA-E surface stabilization assay with RMA-S/HLA-E cells incubated with 30 μM peptide. HLA-E expression is detected with an anti-HLA-E antibody.
# To do so, various sequence variants were assessed for their ability to stabilize surface-expressed HLA-E on RMA-S/HLA-E cells, a TAP-deficient mouse tumor cell line engineered to express HLA-E and human β2M (FIG. 3).
# [2] = system: NKG2A+/NKG2C− NK cells; assay: NK cell stimulation assay with peptide-loaded HLA-E expressing target cells, NKG2A+ cells; assay type: cell-based, human; conditions: NK cell degranulation and IFN-g, TNF and CCL3 production; compared to LIL, LFL and PQS controls
# Method: (§1) FIG. 4: NK cell stimulation assays. Assessment of effects of peptides on NK cell activity through incubation of NK cells, peptides, and a) K562/HLA-E or b) RMA-S/HLA-E target cells. Peptides were derived from the human or CMV proteomes or are included as positive (LFL, LIL) or negative controls (PQS). Replicates for individual peptides are from different donors, with solid black lines indicating mean values.
# (§2) Cell-based activation assays were performed with primary NK cells (FIG. 4). Therein, NK cells were co-incubated with K562 peptide-loaded HLA-E expressing cells, as described previously^14. The K562 human […] cell line is a common tool for the analysis of NK cell cytotoxicity and activation, as said cells facilitate the analysis of both NKG2C-mediated activation and NKG2A-mediated inhibition. The PQS peptide served as a negative control.
# (§3) Peptides that bound and stabilized HLA-E in the cell-based stability experiment (FIG. 3) were selected and assessed regarding their effect on NKG2A+/NKG2C− or NKG2A−/NKG2C+ NK cell activity. The effect was quantified by the ability to induce NK cell degranulation and IFN-g, TNF and CCL3 production, compared to […] (“LIL”; SEQ ID NO: 4) and […] (“LFL”; SEQ ID NO: 2) peptides (class I MHC-derived) as positive control, and […] (“PQS”; (SEQ ID NO: 53) as negative control peptide (FIG. 4). NKG2A/NKG2C NK cells served as an internal control. NKG2A/NKG2C NK cells have been shown previously to not be affected by peptide-HLA-E complexes.
# [3] = system: NKG2A−/NKG2C+ NK cells; assay: NK cell stimulation assay with peptide-loaded HLA-E expressing target cells, NKG2C+ cells; assay type: cell-based, human; conditions: NK cell degranulation and IFN-g, TNF and CCL3 production; compared to LIL, LFL and PQS controls
# Method: as §1, §2, §3
# HLA-E, sequence (P13747 22-358): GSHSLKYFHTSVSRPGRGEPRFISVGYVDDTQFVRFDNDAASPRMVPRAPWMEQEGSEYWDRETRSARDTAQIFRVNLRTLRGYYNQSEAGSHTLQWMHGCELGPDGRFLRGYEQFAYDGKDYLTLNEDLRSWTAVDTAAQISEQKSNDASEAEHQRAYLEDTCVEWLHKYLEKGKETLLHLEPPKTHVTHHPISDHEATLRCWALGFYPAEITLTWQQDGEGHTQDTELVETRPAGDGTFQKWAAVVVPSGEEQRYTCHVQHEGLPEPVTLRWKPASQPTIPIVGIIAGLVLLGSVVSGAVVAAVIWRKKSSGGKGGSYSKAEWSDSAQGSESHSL
# HLA-E, sequence (P61769 21-119, further chain): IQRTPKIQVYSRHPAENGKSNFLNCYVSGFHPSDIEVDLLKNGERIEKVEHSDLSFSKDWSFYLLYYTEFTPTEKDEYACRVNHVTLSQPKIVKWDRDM
sequence,measurement,setting,value
FLPNRSLLF,stabilization of HLA-E surface expression (peptide-HLA-E binding),[1],strong stabilization of HLA-E
same,inhibitory effect on NKG2A+ cells,[2],moderate inhibitory effects
same,activating effect on NKG2C+ cells,[3],strong activating effects
ILTDRSLWL,stabilization of HLA-E surface expression (peptide-HLA-E binding),[1],strong stabilization of HLA-E
same,inhibitory effect on NKG2A+ cells,[2],moderate inhibitory effects
same,activating effect on NKG2C+ cells,[3],strong activating effects
NMPARTVLF,stabilization of HLA-E surface expression (peptide-HLA-E binding),[1],strong stabilization of HLA-E
same,inhibitory effect on NKG2A+ cells,[2],strong inhibitory effect
same,activating effect on NKG2C+ cells,[3],strong activating effect
QMPSRSLLF,stabilization of HLA-E surface expression (peptide-HLA-E binding),[1],strong stabilization of HLA-E
same,inhibitory effect on NKG2A+ cells,[2],moderate inhibitory effects
same,activating effect on NKG2C+ cells,[3],strong activating effects
RMPPRSVLL,inhibitory effect on NKG2A+ cells,[2],strong inhibitory effect
same,activating effect on NKG2C+ cells,[3],strong activating effect
TAPARTMFL,stabilization of HLA-E surface expression (peptide-HLA-E binding),[1],strong stabilization of HLA-E
TLPERTLYL,stabilization of HLA-E surface expression (peptide-HLA-E binding),[1],strong stabilization of HLA-E
same,inhibitory effect on NKG2A+ cells,[2],strong inhibitory effect
same,activating effect on NKG2C+ cells,[3],strong activating effect
TLPKRGLFL,stabilization of HLA-E surface expression (peptide-HLA-E binding),[1],strong stabilization of HLA-E
same,inhibitory effect on NKG2A+ cells,[2],moderate inhibitory effects
same,activating effect on NKG2C+ cells,[3],strong activating effects
VLPHRTQFL,stabilization of HLA-E surface expression (peptide-HLA-E binding),[1],strong HLA-E binding
same,inhibitory effect on NKG2A+ cells,[2],strong inhibitory effect
same,activating effect on NKG2C+ cells,[3],strong activating effect
"VMADKSIFY [OR5D14, reference compound]",stabilization of HLA-E surface expression (peptide-HLA-E binding),[1],no stabilizing effects
"VMGDRSVLY [EMC1, reference compound]",stabilization of HLA-E surface expression (peptide-HLA-E binding),[1],no stabilizing effects
VMPGRTLCF,stabilization of HLA-E surface expression (peptide-HLA-E binding),[1],strong stabilization of HLA-E
same,inhibitory effect on NKG2A+ cells,[2],strong inhibitory effect
same,activating effect on NKG2C+ cells,[3],strong activating effect
VMPPRTLLL,stabilization of HLA-E surface expression (peptide-HLA-E binding),[1],strong stabilization of HLA-E
same,inhibitory effect on NKG2A+ cells,[2],strong inhibitory effect
same,activating effect on NKG2C+ cells,[3],strong activating effect
"WNRLFPPLR [UBAC2275-279, reference compound]",stabilization of HLA-E surface expression (peptide-HLA-E binding),[1],no stabilizing effects
